Experimental data reported in US6897213B1, “Heterocycles as cholecystokinin (CCK) ligands” (Warner-Lambert Company, priority 1995, dated 2005).

How the values were obtained:
CCK-A receptor = biological target: T1, CCK-A receptor (Homo sapiens, UniProt P32238); assay: CCK-A receptor binding affinity
T1 sequence (P32238 1-428): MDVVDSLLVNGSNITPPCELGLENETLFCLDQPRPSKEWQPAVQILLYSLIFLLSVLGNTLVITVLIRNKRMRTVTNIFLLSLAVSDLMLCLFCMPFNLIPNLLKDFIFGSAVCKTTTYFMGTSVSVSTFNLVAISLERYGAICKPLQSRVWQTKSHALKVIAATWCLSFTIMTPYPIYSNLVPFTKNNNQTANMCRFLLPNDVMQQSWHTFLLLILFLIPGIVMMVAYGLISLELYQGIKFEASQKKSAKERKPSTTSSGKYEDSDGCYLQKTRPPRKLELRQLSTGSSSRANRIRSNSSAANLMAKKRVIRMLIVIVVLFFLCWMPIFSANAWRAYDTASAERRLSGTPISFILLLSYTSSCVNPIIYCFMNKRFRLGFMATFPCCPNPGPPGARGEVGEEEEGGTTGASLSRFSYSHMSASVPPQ
Description: (§1) The following table represents the CCK-A and CCK-B receptor binding affinities of the compounds.
(§2) The testing procedures are disclosed in Hays et al, Neuropeptides 1:53-62, 1980; and Satuer et al, Science 208:1155-1156, 1980.

CCK-B receptor = biological target: T2, CCK-B receptor (Mus musculus, UniProt P56481); assay: CCK-B receptor binding affinity (tritiated-pentagastrin displacement, mouse cerebral cortical membranes); conditions: 2 nM tritiated-pentagastrin, Ki by Cheng-Prusoff
T2 construct: from tissue; host or cells: mouse (male CFLP) cerebral cortex membranes
T2 sequence (P56481 1-453): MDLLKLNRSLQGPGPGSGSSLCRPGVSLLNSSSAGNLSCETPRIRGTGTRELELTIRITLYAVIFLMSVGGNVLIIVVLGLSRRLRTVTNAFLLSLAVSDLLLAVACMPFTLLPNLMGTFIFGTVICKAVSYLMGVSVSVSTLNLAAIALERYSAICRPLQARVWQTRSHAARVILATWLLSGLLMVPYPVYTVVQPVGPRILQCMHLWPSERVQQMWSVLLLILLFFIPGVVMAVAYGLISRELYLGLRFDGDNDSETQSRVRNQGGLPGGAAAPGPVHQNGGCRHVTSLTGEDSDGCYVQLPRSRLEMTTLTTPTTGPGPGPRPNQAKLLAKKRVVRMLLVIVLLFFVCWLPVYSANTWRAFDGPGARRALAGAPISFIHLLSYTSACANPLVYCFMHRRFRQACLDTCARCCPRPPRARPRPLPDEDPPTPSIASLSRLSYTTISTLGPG
Experimental: The biological activity of compounds of the present invention may be evaluated by employing an initial screening test which rapidly and accurately measures the binding of the tested compound to known CCK receptor sites. […] (See Hays et al, Neuropeptides 1:53-62, 1980; and Satuer et al, Science 208:1155-1156, 1980).
In this screening test, the cerebral cortices taken from male CFLP mice weighing between 30-40 g were dissected on ice, weighed, and homogenized in 10 volumes of 50 mM Tris-HCl buffer (pH 7.4 at 0-4° C.). The resulting suspension was centrifuged, the supernate was discarded, and the pellet was washed by resuspension in Tris-HCl buffer followed by recentrifugation. The final pellet was resuspended in 20 volumes of […] buffer (pH 7.2 at 23° C.) containing 130 mM NaCl, […], […], 1 […].
In saturation studies, cerebral cortical membranes were incubated at 23° C. for 120 minutes in a final volume of 500 μL of Hepes incubation buffer (pH 7.2) together with 0.2-20 nM tritiated—pentagastrin (Amersham International, England).
In the displacement experiments, membranes were incubated with a single concentration (2 nM) of ligand, together with increasing concentrations (10^11 to 10^14 M) of competitive test compound. In each case, the nonspecific binding was defined as that persisting in the presence of the unlabeled octapeptide CCK26-33 (10^−6M).
Following incubation, radioactivity bound to membranes was separated from that free in solution by rapid filtration through Whatman GF/B filters and washed three times with 4 mL of ice cold Tris-HCl buffer. Filters from samples incubated with tritiated-pentagastrin were placed in polyethylene vials with 4 mL of scintillation cocktail, and the radioactivity was estimated by liquid scintillation spectrometry (efficiency 47-52%).
The specific binding to CCK receptor sites was defined as the total bound tritiated-pentagastrin minus the amount of tritiated-pentagastrin bound in the presence of 10^−6 octapeptide, CCK26-33.
Saturation curves for specific tritiated-pentagastrin binding to mouse cortical membranes were analyzed by the methods of Scatchard (Ann. New York Acad. Sci. 51:660-672, 1949, and Hill (J. Physiol. 40:IV-VIII, 1910), to provide estimates for the maximum number of binding sites (Bmax) and the equilibrium dissociation constant (Ka).
In displacement experiments, inhibition curves were analyzed by either logit-log plots or the iterative curve fitting computer program ALLFIT (DeLean, Munson and Redbard, 1978) to provide estimates of the IC50 and nH (apparent Hill coefficient values).
The inhibition constant (Ki) of the test compound was then calculated according to the Cheng-Prusoff equation: [formula] where [L] is the concentration of radiolabel and Ka is the equilibrium dissociation constant.
The Ki values for several representative compounds of the present invention are present in Table I.
as §1, §2

Compound	Ki (CCK-A receptor) [nM]	Ki (CCK-B receptor) [nM]
CCOC(=O)c1cccc(NC(=O)NNc2nc3ccccc3c(=O)n2-c2ccc(Cl)c(Cl)c2)c1 [No. 21]	1760	53.4
CC(C)Oc1cccc(-n2c(NNC(=O)NC3CCCCC3)nc3ccccc3c2=O)c1 [No. 15, Hydrazinecarboxamide, N-(cyclohexyl)-2-[3,4-dihydro-3-[3-(1-methylethoxy)phenyl]-4-oxo-2-quinazolinyl]-]	17700	105
CN(C)c1cccc(-n2c(NNC(=O)Nc3cccc(C#N)c3)nc3ccccc3c2=O)c1 [No. 40]	5740	18.1
CC(C)Oc1cccc(-n2c(NNC(=O)Nc3cccc(C#N)c3)nc3ccccc3c2=O)c1 [No. 14, Hydrazinecarboxamide, N-(3-cyanohenyl)-2-[3,4-dihydro-3-[3-(1-methylethoxoy)phenyl]-4-oxo-2-quinazolinyl]-]	5390	1.2

Further compounds by falling Ki (CCK-A receptor), results first:

Ki (CCK-A receptor) [nM]	Ki (CCK-B receptor) [nM]	Compound
3640	12.9	CC(C)Oc1cccc(-n2c(NNC(=O)Nc3ccc(Cl)cc3)nc3ccccc3c2=O)c1 [No. 13, Hydrazinecarboxamide, N-(4-Chlorophenyl)-2-[3,4-dihydro-3-[3-(1-methylethoxy)phenyl]-4-oxo-2-quinazolinyl]]
3580	2	CC(C)Oc1cccc(-n2c(NNC(=O)Nc3cccc(C(=O)OC(C)(C)C)c3)nc3ccccc3c2=O)c1 [No. 7]
3430	16	CC(C)Oc1cccc(-n2c(NNC(=O)Nc3ccc(Br)cc3)nc3ccccc3c2=O)c1 [No. 1, Hydrazinecarboxamide, N-(4-bromophenyl)-2-[3,4-dihydro-3-[3-(1-methylethoxy)-phenyl]-4-oxo-2-quinazolinyl]-]
